Measurements published in patent publication US9834559B2, “4-Amino-6-phenyl-5,6-dihydroimidazo[1,5-a]pyrazin-3(2H)-one derivatives as inhibitors of beta-secretase (BACE)” (Janssen Pharmaceutica NV, priority 2013, dated 2017).

Columns and labels:
[1] = target: recombinant BACE1 protein (Homo sapiens, UniProt P56817); assay: BACE1 biochemical FRET based assay; conditions: BACE1 0.04 μg/ml, 20 μM substrate, pH 5.0, 450 min; read-out: Biochemical FRET based assay pIC50 (converted)
Text: (§1) This assay is a Fluorescence Resonance Energy Transfer Assay (FRET) based assay. The substrate for this assay is an APP derived 13 amino acids peptide that contains the ‘Swedish’ Lys-Met/Asn-Leu mutation of the amyloid precursor protein (APP) beta-secretase cleavage site. This substrate also contains two fluorophores: (7-methoxycoumarin-4-yl) acetic acid (Mca) is a fluorescent donor with excitation wavelength at 320 nm and emission at 405 nm and 2,4-Dinitrophenyl (Dnp) is a proprietary quencher acceptor. […] Upon cleavage by BACE1, the fluorophore Mca is separated from the quenching group Dnp, restoring the full fluorescence yield of the donor. The increase in fluorescence is linearly related to the rate of proteolysis.
Briefly in a 384-well format recombinant BACE1 protein in a final concentration of 0.04 μg/ml is incubated for 450 minutes at room temperature with 20 μM substrate in incubation buffer (50 mM Citrate buffer pH 5.0, 0.05% PEG) in the presence of compound or DMSO. Next the amount of proteolysis is directly measured by fluorescence measurement (excitation at 320 nm and emission at 405 nm) at different incubation times (0, 30, 60, 90, 120 and 450 min). For every experiment a time curve (every 30 min between 0 min and 120 min) is used to determine the time where we find the lowest basal signal of the high control. The signal at this time (Tx) is used to subtract from the signal at 450 min. Results are expressed in RFU, as difference between T450 and Tx.
(§2) A best-fit curve is fitted by a minimum sum of squares method to the plot of % Controlmin versus compound concentration. From this an IC50 value (inhibitory concentration causing 50% inhibition of activity) can be obtained. • LC=Median of the low control values • =Low control: Reaction without enzyme • HC=Median of the High control values • =High Control: Reaction with enzyme • % Effect=100−[(sample−LC)/(HC−LC)*100] • % Control=(sample/HC)*100 • % Controlmin=(sample−LC)/(HC−LC)*100

[2] = tested on: Abeta 1-42 produced and secreted by human neuroblastoma SKNBE2 cells expressing hAPP695; assay: Cellular αLisa assay in SKNBE2 cells, Abeta 1-42; type: cell-based; conditions: 18 hours incubation, read-out: Cellular αLisa assay in SKNBE2 cells Abeta 42 pIC50 (converted)
Description: (§3) In two αLisa assays the levels of Abeta total and Abeta 1-42 produced and secreted into the medium of human neuroblastoma SKNBE2 cells are quantified. The assay is based on the human neuroblastoma SKNBE2 expressing the wild type Amyloid Precursor Protein (hAPP695). The compounds are diluted and added to these cells, incubated for 18 hours and then measurements of Abeta 1-42 and Abeta total are taken. Abeta total and Abeta 1-42 are measured by sandwich αLisa. αLisa is a sandwich assay using biotinylated antibody AbN/25 attached to streptavidin coated beads and antibody Ab4G8 or cAb42/26 conjugated acceptor beads for the detection of Abeta total and Abeta 1-42 respectively. In the presence of Abeta total or Abeta 1-42, the beads come into close proximity. The excitation of the donor beads provokes the release of singlet oxygen molecules that trigger a cascade of energy transfer in the acceptor beads, resulting in light emission. Light emission is measured after 1 hour incubation (excitation at […] and emission at 615 nm).
as §2, with “cells preincubated” for “Reaction”, “compound, without biotinylated Ab in the αLisa” for “enzyme”, “cells preincubated without compound” for “Reaction with enzyme”

[3] = tested on: Abeta total produced and secreted by human neuroblastoma SKNBE2 cells expressing hAPP695; assay: Cellular αLisa assay in SKNBE2 cells, Abeta total; type: cell-based; conditions: 18 hours incubation, read-out: Cellular αLisa assay in SKNBE2 cells Abetatotal pIC50 (converted)
Description: as §3
as §2, with “cells preincubated” for “Reaction”, “compound, without biotinylated Ab in the αLisa” for “enzyme”, “cells preincubated without compound” for “Reaction with enzyme”

[4] = target: T1, recombinant BACE2 protein (Homo sapiens, UniProt Q9Y5Z0); assay: BACE2 biochemical FRET based assay; conditions: BACE2 0.4 μg/ml, 10 μM substrate, pH 5.0, 450 min; read-out: BACE2 Biochemical FRET based assay pIC50 (converted)
T1 sequence (Q9Y5Z0 63-518): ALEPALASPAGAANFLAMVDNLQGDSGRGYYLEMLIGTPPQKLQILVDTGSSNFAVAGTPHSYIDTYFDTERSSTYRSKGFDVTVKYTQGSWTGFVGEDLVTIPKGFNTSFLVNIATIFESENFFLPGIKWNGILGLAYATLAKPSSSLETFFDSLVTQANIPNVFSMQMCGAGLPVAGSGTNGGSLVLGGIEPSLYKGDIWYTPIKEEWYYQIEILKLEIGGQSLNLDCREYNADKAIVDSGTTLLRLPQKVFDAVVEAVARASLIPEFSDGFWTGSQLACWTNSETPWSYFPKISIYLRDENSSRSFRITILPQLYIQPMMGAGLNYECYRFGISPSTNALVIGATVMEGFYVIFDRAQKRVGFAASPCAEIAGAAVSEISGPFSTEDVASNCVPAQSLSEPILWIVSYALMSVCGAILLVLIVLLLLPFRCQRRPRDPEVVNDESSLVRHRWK
Text: as §1, with “assay” for “assay is an APP derived 13 amino acids peptide that”, “the beta-secretase,” for “BACE1,”
Briefly in a 384-well format recombinant BACE2 protein in a final concentration of 0.4 μg/ml is incubated for 450 minutes at room temperature with 10 μM substrate in incubation buffer (50 mM Citrate buffer pH 5.0, 0.05% PEG, no DMSO) in the absence or presence of compound. Next the amount of proteolysis is directly measured by fluorescence measurement at T=0 and T=450 (excitation at 320 nm and emission at 405 nm). Results are expressed in RFU (Relative Fluorescence Units), as difference between T450 and T0.
as §2

recombinant BACE1 protein, sequence (P56817 46-501): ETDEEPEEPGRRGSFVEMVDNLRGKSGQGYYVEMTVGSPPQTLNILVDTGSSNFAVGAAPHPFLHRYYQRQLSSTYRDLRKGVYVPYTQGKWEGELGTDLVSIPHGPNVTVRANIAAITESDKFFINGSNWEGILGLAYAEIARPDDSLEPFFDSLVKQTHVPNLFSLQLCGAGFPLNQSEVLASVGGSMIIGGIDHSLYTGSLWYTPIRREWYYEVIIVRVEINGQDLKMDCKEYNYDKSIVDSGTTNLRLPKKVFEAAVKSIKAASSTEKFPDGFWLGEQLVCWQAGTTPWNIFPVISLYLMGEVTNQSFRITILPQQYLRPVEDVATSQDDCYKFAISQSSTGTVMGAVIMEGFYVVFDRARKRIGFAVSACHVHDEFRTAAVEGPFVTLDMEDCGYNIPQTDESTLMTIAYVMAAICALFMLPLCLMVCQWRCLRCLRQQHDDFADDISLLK

Row | IC50 [1] [nM] | IC50 [2] [nM] | IC50 [3] [nM] | IC50 [4] [nM] | melting point [°C] | SMILES
1 | 8.71 | 12.3 | 10 | 55 | 280.5 | COc1cnc(C(=O)Nc2ccc(F)c([C@]3(C)Cn4c(cn(CC(F)(F)F)c4=O)C(N)=N3)c2)cn1 [Compound 11, N-{3-[(6R)-8-amino-6-methyl-3-oxo-2-(2,2,2-trifluoroethyl)-2,3,5,6-tetrahydroimidazo[1,5-a]pyrazin-6-yl]-4-fluorophenyl}-5-methoxypyrazine-2-carboxamide]
2 | 12.3 | 18.6 | 16.6 | 7.41 | 239.9 | C[C@@]1(c2cc(NC(=O)c3ccc(F)cn3)ccc2F)Cn2c(cn(CC(F)(F)F)c2=O)C(N)=N1 [Compound 7, N-{3-[(6R)-8-amino-6-methyl-3-oxo-2-(2,2,2-trifluoroethyl)-2,3,5,6-tetrahydroimidazo[1,5-a]pyrazin-6-yl]-4-fluorophenyl}-5-fluoropyridine-2-carboxamide]
3 | 5.62 | 12.6 | 10.7 | 12 | 235 | C[C@@]1(c2cc(NC(=O)c3ccc(C#N)cn3)ccc2F)Cn2c(cn(CC(F)(F)F)c2=O)C(N)=N1 [Compound 10, N-{3-[(6R)-8-amino-6-methyl-3-oxo-2-(2,2,2-trifluoroethyl)-2,3,5,6-tetrahydroimidazo[1,5-a]pyrazin-6-yl]-4-fluorophenyl}-5-cyanopyridine-2-carboxamide]
4 | 4.68 | 5.62 | 4.79 | 6.61 | 219.9 | C[C@@]1(c2cc(NC(=O)c3ccc(Cl)cn3)ccc2F)Cn2c(cn(CC(F)(F)F)c2=O)C(N)=N1 [Compound 8, N-{3-[(6R)-8-amino-6-methyl-3-oxo-2-(2,2,2-trifluoroethyl)-2,3,5,6-tetrahydroimidazo[1,5-a]pyrazin-6-yl]-4-fluorophenyl}-5-chloropyridine-2-carboxamide]
5 | 9.55 | 36.3 | 29.5 | 100 | – | COc1cnc(C(=O)Nc2ccc(F)c([C@]3(C)Cn4c(cn(C)c4=O)C(N)=N3)c2)cn1 [Compound 5, N-{3-[(6R)-8-amino-2,6-dimethyl-3-oxo-2,3,5,6-tetrahydroimidazo[1,5-a]pyrazin-6-yl]-4-fluorophenyl}-5-methoxypyrazine-2-carboxamide]
6 | 7.76 | 38.9 | 33.1 | 22.9 | – | Cc1cc(C#N)cnc1C(=O)Nc1ccc(F)c([C@]2(C)Cn3c(cn(C)c3=O)C(N)=N2)c1 [Compound 9, N-{3-[(6R)-8-amino-2,6-dimethyl-3-oxo-2,3,5,6-tetrahydroimidazo[1,5-a]pyrazin-6-yl]-4-fluorophenyl}-5-cyano-3-methylpyridine-2-carboxamide]
7 | 490 | 1260 | 1020 | 7080 | 239.1 | Cn1cc2n(c1=O)C[C@@](C)(c1cc(-c3cncnc3)ccc1F)N=C2N [Compound 2, (6R)-8-Amino-6-(2-fluoro-5-pyrimidin-5-ylphenyl)-2,6-dimethyl-5,6-dihydro-imidazo[1,5-a]pyrazin-3(2H)-one]
8 | 15.1 | 87.1 | 89.1 | 13.2 | – | Cn1cc2n(c1=O)C[C@@](C)(c1cc(NC(=O)c3ccc(F)cn3)ccc1F)N=C2N [Compound 6, N-{3-[(6R)-8-amino-2,6-dimethyl-3-oxo-2,3,5,6-tetrahydroimidazo[1,5-a]pyrazin-6-yl]-4-fluorophenyl}-5-fluoropyridine-2-carboxamide]
